Laboratory results from the supplement of paper PMC10307832.

Columns and labels:
Test in all cases: relative viability (nuclei count vs DMSO), 5 days (fraction); higher = more cells survive
HCC-366 = test system: HCC-366
Procedure, shortened: (§1)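 Medians of duplicate plates are given as relative viability. That measure is the nuclei count in treated wells divided by the count in vehicle wells. Counts were taken on 4× images of lung cancer cell lines in 1536-well plates, 5 days after pin-tool dosing the day after seeding with one drug alone or a fixed anchor-drug dose plus five library-drug doses (not always all listed) in √10 steps.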

NCI-H322M = test system: NCI-H322M
Procedure, shortened: as §1

NCI-H2228 = test system: NCI-H2228
Procedure, shortened: as §1

ABC-1 = test system: ABC-1
Procedure, shortened: as §1

NCI-H1993 = test system: NCI-H1993
Procedure, shortened: as §1

EPLC-272H = test system: EPLC-272H
Procedure, shortened: as §1

SK-MES-1 = test system: SK-MES-1
Procedure, shortened: as §1

NCI-H1975 = test system: NCI-H1975
Procedure, shortened: as §1

EKVX = test system: EKVX
Procedure, shortened: as §1

NCI-H2087 = test system: NCI-H2087
Procedure, shortened: as §1

Work on `CCNC(=O)c1noc(-c2cc(C(C)C)c(O)cc2O)c1-c1ccc(CN2CCOCC2)cc1` [Luminespib] + C[C@]1(O)C[C@@H](c2nc(-c3ccc4ccc(-c5ccccc5)nc4c3)c3c(N)nccn32)C1 [Linsitinib] (partner 1 µM) yielded a relative viability (HCC-366; first compound 0.002 µM) of 0.56, a relative viability (HCC-366; first compound 0.006325 µM) of 0.696 and a relative viability (HCC-366; first compound 0.02 µM) of 0.462. The relative viability (HCC-366; first compound 0.06325 µM) was 0.0199, the relative viability (HCC-366; first compound 0.2 µM) was 0.0167 and the relative viability (NCI-H322M; first compound 0.002 µM) was 0.805. It also gave a relative viability (NCI-H322M; first compound 0.006325 µM) of 0.851, a relative viability (NCI-H322M; first compound 0.02 µM) of 0.725 and a relative viability (NCI-H322M; first compound 0.06325 µM) of 0.998. For the same compound, the relative viability (NCI-H322M; first compound 0.2 µM) was 0.963, the relative viability (NCI-H2228; first compound 0.002 µM) was 0.612 and the relative viability (NCI-H2228; first compound 0.006325 µM) was 0.629. It also gave a relative viability (NCI-H2228; first compound 0.02 µM) of 0.203, a relative viability (NCI-H2228; first compound 0.06325 µM) of 0.168 and a relative viability (NCI-H2228; first compound 0.2 µM) of 0.199. For the same compound, the relative viability (ABC-1; first compound 0.002 µM) was 0.869, the relative viability (ABC-1; first compound 0.006325 µM) was 0.941 and the relative viability (ABC-1; first compound 0.02 µM) was 0.676. The relative viability (ABC-1; first compound 0.06325 µM) was 0.257, the relative viability (ABC-1; first compound 0.2 µM) was 0.227 and the relative viability (NCI-H1993; first compound 0.002 µM) was 0.829. It also gave a relative viability (NCI-H1993; first compound 0.006325 µM) of 0.735, a relative viability (NCI-H1993; first compound 0.02 µM) of 0.678 and a relative viability (NCI-H1993; first compound 0.06325 µM) of 0.534. It also gave a relative viability (NCI-H1993; first compound 0.2 µM) of 0.576, a relative viability (EPLC-272H; first compound 0.006325 µM) of 1.07 and a relative viability (EPLC-272H; first compound 0.02 µM) of 0.727. For the same compound, the relative viability (EPLC-272H; first compound 0.06325 µM) was 1.11, the relative viability (EPLC-272H; first compound 0.2 µM) was 1.14 and the relative viability (SK-MES-1; first compound 0.002 µM) was 1. The relative viability (SK-MES-1; first compound 0.006325 µM) was 0.893, the relative viability (SK-MES-1; first compound 0.02 µM) was 1.13 and the relative viability (SK-MES-1; first compound 0.06325 µM) was 0.916. It also gave a relative viability (SK-MES-1; first compound 0.2 µM) of 0.164, a relative viability (NCI-H1975; first compound 0.002 µM) of 1.08 and a relative viability (NCI-H1975; first compound 0.006325 µM) of 0.882. For the same compound, the relative viability (NCI-H1975; first compound 0.02 µM) was 0.492, the relative viability (NCI-H1975; first compound 0.06325 µM) was 0.156 and the relative viability (NCI-H1975; first compound 0.2 µM) was 0.141. For the same compound, the relative viability (EKVX; first compound 0.002 µM) was 1, the relative viability (EKVX; first compound 0.006325 µM) was 0.989 and the relative viability (EKVX; first compound 0.02 µM) was 0.721. It also gave a relative viability (EKVX; first compound 0.06325 µM) of 0.779, a relative viability (EKVX; first compound 0.2 µM) of 0.179 and a relative viability (NCI-H2087; first compound 0.002 µM) of 1.01. For the same compound, the relative viability (NCI-H2087; first compound 0.006325 µM) was 0.714, the relative viability (NCI-H2087; first compound 0.02 µM) was 1.08 and the relative viability (NCI-H2087; first compound 0.06325 µM) was 0.263. It also gave a relative viability (NCI-H2087; first compound 0.2 µM) of 0.204.
